According to PMC3929521, “Optimization (Central Composite Design) and Validation of HPLC Method for Investigation of Emtricitabine Loaded Poly(lactic-co-glycolic acid) Nanoparticles: In Vitro Drug Release and In Vivo Pharmacokinetic Studies” (The Scientific World Journal, 2014):
Where two headings read alike, the source gives them in different places.

Assays:
in vivo = test: in vivo
Experimental: The pharmacokinetic studies were carried out in healthy male Wistar rats (250–300 g). The animals were fasted overnight before dosing with free access to water. The animals were acclimatized to laboratory conditions over the week before experiments and fed with standard rat diet, under controlled conditions of a 12 : 12 h light : dark cycle, with a temperature of 22 ± 3°C and relative humidity of 50 ± 5% RH. The experimental protocol was approved by the Institutional Animal Ethical Committee (AACP/IAEC/Jun-2012-02).
Eighteen rats were randomly separated into three groups (six animals in each group).
At regular time intervals 0, 1, 2, 4, 6, 8, 12, and every 24 h, for 10 days, samples of blood were withdrawn (100 μL) from the retroorbital plexus by microcapillary technique under light ether anesthesia into heparinized microcentrifuge tubes (50 units heparin/mL of blood).
The supernatant was decanted into a China dish and evaporated to dryness at room temperature. This was further reconstituted with 100 μL of mobile phase and vortexed for 30 s and 20 μL was injected into an HPLC system. Emtricitabine was detected at a wavelength of 280 nm. The proficiency of nanoparticulate formulations was appraised by administering pure drug orally and measuring the blood levels at 0, 0.25, 0.5, 1.5, 2, 3, 4, 6, 8, 12 and 24 h.

[1] = rat plasma, n = 6
Experimental: Bench-top stability was investigated to ensure that emtricitabine was not degraded in plasma samples at room temperature for a time period to cover the sample preparation. It was measured by divulging the QC samples to ambient laboratory conditions for 10 h. Freeze-thaw stability was measured over three cycles. Because of the need for occasional delayed injection of extraction samples, the stability of reconstituted samples was assessed at ambient temperature for 24 h. The freezer storage stability of emtricitabine in rat plasma at −20°C was evaluated by assaying QC samples at the beginning and one week later. All stability QC samples were analyzed in six replicates.

[2] = male Wistar rats, oral, 15 mg/kg/rat, n = 6, mean ± SD, listed as Free emtricitabine, 15 mg/kg
[3] = male, Wistar, rat, plasma, po, 15 mg/kg
[4] = Bench-top stability, ambient temperature (25°C) for 4 h, spiked 0.1 μg/mL
[5] = Bench-top stability, ambient temperature (25°C) for 4 h, spiked 0.8 μg/mL
[6] = Bench-top stability, ambient temperature (25°C) for 4 h, spiked 2.0 μg/mL
[7] = Freeze-thaw stability, after three freeze-thaw cycles, spiked 0.1 μg/mL
[8] = Freeze-thaw stability, after three freeze-thaw cycles, spiked 0.8 μg/mL
[9] = Freeze-thaw stability, after three freeze-thaw cycles, spiked 2.0 μg/mL
[10] = One-week stability, stored at −16°C, spiked 0.1 μg/mL
[11] = One-week stability, stored at −16°C, spiked 0.8 μg/mL
[12] = One-week stability, stored at −16°C, spiked 2.0 μg/mL

- AUMC0–∞ (in vivo; male Wistar rats, oral, 15 mg/kg/rat, n = 6, mean ± SD): 178.32 ± 15.095 µg/mL∗h
- AUC0–∞ (in vivo; [2]): 14.835 ± 0.450 µg/mL∗h
- t max (in vivo; [2]): 2.0 ± 0.006 h
- Cmax (in vivo; [3]): 1700 ± 17 ng/mL
- MRT (in vivo; [3]): 12 ± 0.67 h
- half-life (in vivo; [3]): 9.37 ± 0.58 h
- k el (in vivo; [3]): 2.06e-05 s⁻¹
- AUC(0-inf) (in vivo; male, Wistar, rat, plasma, po, 15 mg/kg, AUC0–∞, male Wistar rats, 15 mg/kg/rat, n = 6, mean ± SD): 14800 ng·h/mL
- t max (in vivo; male, Wistar, rat, plasma, po, 15 mg/kg, t max, male Wistar rats, 15 mg/kg/rat, n = 6, mean ± SD): ≤ 2 h
- AUC(0-inf) (in vivo; male, Wistar, rat, plasma, po, 15 mg/kg/rat, AUC0−∞ (Figure 6), Wistar rats, mean ± SEM): 14800 ± 184 ng·h/mL
- Accuracy [1, 4]: 96.0%
- Mean determined concentration [1, 4]: 0.096 µg/mL
- Accuracy [1, 5]: 97.87%
- Mean determined concentration [1, 5]: 0.783 µg/mL
- Accuracy [1, 6]: 97.20%
- Mean determined concentration [1, 6]: 1.944 µg/mL
- Accuracy [1, 7]: 99.00%
- Mean determined concentration [1, 7]: 0.099 µg/mL
- Accuracy [1, 8]: 99.37%
- Mean determined concentration [1, 8]: 0.795 µg/mL
- Accuracy [1, 9]: 99.75%
- Mean determined concentration [1, 9]: 1.995 µg/mL
- Accuracy [1, 10]: 93.00%
- Mean determined concentration [1, 10]: 0.093 µg/mL
- Accuracy [1, 11]: 93.25%
- Mean determined concentration [1, 11]: 0.746 µg/mL
- Accuracy [1, 12]: 95.55%
- Mean determined concentration [1, 12]: 1.911 µg/mL
SMILES: Nc1nc(=O)n([C@@H]2CS[C@H](CO)O2)cc1F [Emtricitabine, 5-fluoro-1-(2R, 5S)-[2-(hydroxymethyl)-1,3-oxathiolan-5-yl]cytosine]
